Tested on: 3T3-L1 cells
Test: mRNA expression of aP2 and adiponectin in differentiated 3T3-L1 adipocytes (Light Cycler)
Assay type: cell-based, mouse
Conditions: 7 days after differentiation induction, non-treatment control = 100, average ± standard error
Experimental: Next, culture preadipocytes 3T3-L1 were thawed, inoculated in a 100 mm dish and cultured until 3T3-L1 cells reached about 80% confluence. A single dish of 3T3-L1 that had reached about 80% confluence was subcultured to a single 6-well plate and further cultured until the 3T3-L1 cells reached confluence in the 6-well plate, and then the medium was replaced with the differentiation induction medium, followed by differentiation induction. 48 hours later, the medium was replaced with the differentiation promotion medium, and thereafter, the medium was replaced with the differentiation promotion medium every two days. 7 days after the initiation of the differentiation induction, mRNA was extracted using Sepasol-RNA I Super (trade name; manufactured by Nacalai Tesque, Inc.), and the mRNA expression amounts of 36B4, aP2 and adiponectin, which were indicators of an early period of adipocyte differentiation, were measured using Light Cycler (TM). Also, the medium 7 days after the differentiation induction was taken in an amount of 1 mL from each well, and the amount of adiponectin in the medium supernatant was measured using a mouse/rat adiponectin ELISA kit (manufactured by Otsuka Pharmaceutical Co., Ltd.).
The medium was removed from the above-described 6-well plate, 1 mL of Sepasol(R)-RNA I Super (manufactured by Nacalai Tesque, Inc.) was added to each well, and pipetting was repeated several times so as to disperse the cells. This solution was transferred to a 1.5 mL tube and allowed to stand for 5 minutes at room temperature, and then 200 μL of chloroform was added, stirred well with a vortex stirrer and allowed to stand for 3 minutes at room temperature. The solution was cooled to 4° C. and centrifuged at 12000×g for 15 minutes. While taking great care not to disturb an interface between a phenol layer (a lower layer, yellow) and a water layer (an upper layer, colorless), the water layer alone was transferred to another tube (with a capacity of 1.5 mL). At this time, care was taken not to take proteins floating between these layers. 500 μL of isopropanol was added to the tube and mixed and allowed to stand for 10 minutes at room temperature. The solution was cooled to 4° C. and centrifuged at 12000×g for 10 minutes, followed by removing about 1 mL of the supernatant. To this precipitate, 1 mL of 75% ethanol was added and stirred to suspend the precipitate sufficiently, and then cooled to 4° C. and centrifuged at 12000×g for 10 minutes, followed by removing the supernatant. The resultant precipitate (total RNA) was dried and then dissolved in 20 μL of nuclease free water, thus measuring the concentration of mRNA using NanoDrop (manufactured by SCRUM Inc.).
The extracted and measured mRNA solution was adjusted to have an mRNA concentration of 1 μg/μL. […]

CC(C)=CCC/C(C)=C/COc1c2ccoc2cc2oc(=O)ccc12 [Bergamottin, bergamottin]
Adiponectin mRNA expression amount (ratio to 36B4) (1 μM): 189.5 ± 9.7
aP2 mRNA expression amount (ratio to 36B4) (1 μM): 157.5 ± 7.3
Adiponectin mRNA expression amount (ratio to 36B4) (5 μM): 227.2 ± 16.0
aP2 mRNA expression amount (ratio to 36B4) (5 μM): 194.6 ± 9.0
